Measured values as given in patent US20130207041A1, “FLUORESCENT COMPOUND, MAKING METHOD, AND FLUORESCENT RESIN COMPOSITION” (Shin-Etsu Chemical Co., Ltd., priority 2012, published 2013).
≈ marks a conversion by molar mass, not a printed value.

Legend:
[1] = in ethanol
[2] = Solubility in transparent silicone resin SIM-360 matrix; conditions: room temperature, stirring; judged dissolved when solution became transparent
Method: With stirring at room temperature, transparent silicone resin SIM-360 matrix (Shin-Etsu Chemical Co., Ltd.) was added in incremental amounts.

Structure (SMILES) | maximum absorption peak wavelength [1] [nm] | molar absorption coefficient [1] | solubility in silicone resin SIM-360 matrix [2]
C[Si](C)(C)O[Si](C)(CCCC1(CCC[Si](C)(O[Si](C)(C)C)O[Si](C)(C)C)c2cc(-c3ccc(-c4ccccc4)cc3)ccc2-c2ccc(-c3ccc(-c4ccccc4)cc3)cc21)O[Si](C)(C)C [Compound #2, 2,7-bis(biphenyl)-9,9′-di-[3-(1-trimethylsiloxy-1,3,3,3-tetramethyldisiloxan-1-yl)propyl]-fluorene] | 338 | 7.07×10^4 | 1.3 mM (≈ 1290 µg/mL)
CCCCCCC1(CCCCCC)c2cc(-c3ccc(-c4ccccc4)cc3)ccc2-c2ccc(-c3ccc(-c4ccccc4)cc3)cc21 [Compound #5, 2,7-Bis(Biphenyl)-9,9′-Dihexylfluorene, reference compound] | – | – | could not be dissolved
C[Si](C)(C)O[Si](C)(C)O[Si](C)(C)O[Si](C)(C)O[Si](C)(C)CCCC1(CCC[Si](C)(C)O[Si](C)(C)O[Si](C)(C)O[Si](C)(C)O[Si](C)(C)C)c2cc(-c3ccc(-c4ccccc4)cc3)ccc2-c2ccc(-c3ccc(-c4ccccc4)cc3)cc21 [Compound #4, 2,7-bis(biphenyl)-9,9′-di-[3-(undecamethylpentasiloxan-1-yl)propyl]fluorene] | 338 | 6.81×10^4 | 6.0 mM (≈ 7750 µg/mL)
